In patent US20120034312A1, “4-ISOPROPYL-3-METHYLPHENOL FOR THE TREATMENT OF INFLAMMATION” (Glaxo Group Limited, priority 2009, published 2012):

Key:
[1] = tested on: Human Gingival Fibroblasts; assay: PGE2 release from LPS exposed Human Gingival Fibroblasts; format: cell-based; conditions: for PGE2 Response (with LPS): media only without LPS = 100
Description: To further evaluate anti-inflammatory activity of IPMP in the oral cavity, a similar experiment was conducted on Human Gingival Fibroblasts. Cells were exposed to LPS as well as three non-irritating doses of IPMP (see example 1).
Another further experiment with IPMP and zinc chloride was conducted on Human Gingival Fibroblasts.

[2] = tested on: LPS stimulated Raw 264.7 Macrophage cells
Description: Anti-inflammatory activity was assessed on classical inflammation model LPS stimulated Raw 264.7 Macrophage cells. Inflammation response was quantified by measurements of the release of Prostaglandin E2 (PGE2) from the cells. Cells were exposed to E.coli lipopolysaccharide (LPS) with or without IPMP for 24 hours prior to assay. […] All values were normalized to cell viability of same sample, then to the inflammatory response of the cells without the addition of agents or LPS (100%).

Structure (SMILES): [Cl-].[Cl-].[Zn+2] [Zinc Chloride, zinc chloride, reference compound]
- PGE2 Response (with LPS) ([1]; 55 μM Zinc Chloride): 171 ± 2.9%

Structure (SMILES): Cc1cc(O)ccc1C(C)C [IPMP, 4-isopropyl-3-methylphenol]
- PGE2 Response (with LPS) ([1]; 2 μM IPMP): 146 ± 46.6%
- PGE2 Response (with LPS) ([1]; 10 μM IPMP): 127 ± 21.6%
- PGE2 Response (with LPS) ([1]; 50 μM IPMP): 103 ± 13.3%
- Suppression of LPS induced inflammation ([1]; 2, 10, 50 μM IPMP, with LPS): suppresses LPS induced inflammation in a dose-dependent manner
- Cell death / cell proliferation at nonirritative dose [2]: neither cause cell death nor affect cell proliferation
- Irritation of cells by IPMP by itself [2]: did not irritate the cells
- PGE2 Response (without LPS) ([2]; 50 μM IPMP, 24 hours, no LPS, normalized to cell viability and to cells without agents or LPS (100%)): 101 ± 0.0%
- PGE2 Response (with LPS) ([2]; 50 μM IPMP, E.coli LPS, 24 hours, normalized to cell viability and to cells without agents or LPS (100%)): 141 ± 6.4%
